Numbers after ± are expanded uncertainties.
Assay: xn = mol fraction of the nth substance listed
Conditions: 101 kPa, Liquid; for speed of sound: Single path-length method; for mass density: Vibrating tube method

C[N+]1(CC2CO2)CCCC1=O.O=C([O-])c1ccccc1O (stereo not given) [1-methyl-1-(oxiran-2-ylmethyl)-2-oxopyrrolidinium salicylate] + CC(=O)O
Conditions | mass density, 293.15 K [kg/m3] | mass density, 298.15 K [kg/m3] | mass density, 303.15 K [kg/m3] | mass density, 308.15 K [kg/m3] | mass density, 313.15 K [kg/m3] | speed of sound, 293.15 K [m/s] | speed of sound, 298.15 K [m/s] | speed of sound, 303.15 K [m/s] | speed of sound, 308.15 K [m/s] | speed of sound, 313.15 K [m/s]
x1 = 0.0301 | 1080.9 ± 3 | 1075.6 ± 3 | 1070.3 ± 3 | 1065 ± 3 | 1059.7 ± 3 | 1250 ± 6.1 | 1232.7 ± 6.1 | 1215.5 ± 6.1 | 1198.6 ± 6.1 | 1181.8 ± 6.1
x1 = 0.0701 | 1103.7 ± 3 | 1098.6 ± 3 | 1093.5 ± 3 | 1088.4 ± 3 | 1083.3 ± 3 | 1310.7 ± 6.1 | 1294 ± 6.1 | 1277.3 ± 6.1 | 1260.7 ± 6.1 | 1244.4 ± 6.1
x1 = 0.1001 | 1117.2 ± 3 | 1112.3 ± 3 | 1107.3 ± 3 | 1102.4 ± 3 | 1097.4 ± 3 | 1349.7 ± 6.1 | 1333.2 ± 6.1 | 1316.5 ± 6.1 | 1300.1 ± 6.1 | 1283.9 ± 6.1
x1 = 0.2001 | 1147.6 ± 3 | 1143 ± 3 | 1138.3 ± 3 | 1133.6 ± 3 | 1128.8 ± 3 | 1441 ± 6.1 | 1424.6 ± 6.1 | 1408.1 ± 6.1 | 1391.8 ± 6.1 | 1375.7 ± 6.2
x1 = 0.3003 | 1166.3 ± 3 | 1161.7 ± 3 | 1157.2 ± 3 | 1152.7 ± 3 | 1148.9 ± 3 | 1496.7 ± 6.1 | 1480.2 ± 6.2 | 1463.7 ± 6.2 | 1447.5 ± 6.2 | 1431 ± 6.2
x1 = 0.4013 | 1178.7 ± 3.1 | 1174.2 ± 3.1 | 1169.7 ± 3.1 | 1165.5 ± 3.1 | 1161 ± 3.1 | 1535 ± 6.2 | 1515.8 ± 6.2 | 1497.4 ± 6.2 | 1480.2 ± 6.2 | 1463.1 ± 6.2
x1 = 0.5017 | 1187.3 ± 3.1 | 1183 ± 3.1 | 1178.7 ± 3.1 | 1174.5 ± 3.1 | 1170.1 ± 3.1 | 1561.4 ± 6.2 | 1541.8 ± 6.2 | 1523.2 ± 6.2 | 1504.9 ± 6.2 | 1488.8 ± 6.2
x1 = 0.6002 | 1193.9 ± 3.1 | 1189.6 ± 3.1 | 1185.4 ± 3.1 | 1181.3 ± 3.1 | 1177 ± 3.1 | 1582.2 ± 6.2 | 1562.5 ± 6.2 | 1542.9 ± 6.2 | 1528.5 ± 6.2 | 1515.4 ± 6.2
x1 = 0.7019 | 1199.1 ± 3.1 | 1194.9 ± 3.1 | 1190.7 ± 3.1 | 1186.7 ± 3.1 | 1182.5 ± 3.1 | 1600 ± 6.2 | 1582 ± 6.2 | 1565.2 ± 6.2 | 1548.8 ± 6.2 | 1532.6 ± 6.2
x1 = 0.8024 | 1203.6 ± 3.2 | 1199.3 ± 3.1 | 1195.1 ± 3.1 | 1191 ± 3.1 | 1186.7 ± 3.1 | 1617.3 ± 6.3 | 1600 ± 6.3 | 1583 ± 6.3 | 1566.5 ± 6.3 | 1550.4 ± 6.3
x1 = 0.901 | 1207 ± 3.2 | 1202.7 ± 3.2 | 1198.6 ± 3.2 | 1194.5 ± 3.2 | 1190.2 ± 3.2 | 1626.8 ± 6.3 | 1609.2 ± 6.3 | 1592.2 ± 6.3 | 1575.7 ± 6.3 | 1559.5 ± 6.3
x1 = 1 | 1209.8 ± 3.2 | 1205.5 ± 3.2 | 1201.3 ± 3.2 | 1197.2 ± 3.2 | 1193 ± 3.2 | 1634.2 ± 6.3 | 1614.5 ± 6.3 | 1595.7 ± 6.3 | 1577.6 ± 6.3 | 1559.5 ± 6.3

C[N+]1(CC2CO2)CCCC1=O.O=C([O-])c1ccccc1O (stereo not given) [1-methyl-1-(oxiran-2-ylmethyl)-2-oxopyrrolidinium salicylate] + CCC(=O)O
Conditions | mass density, 293.15 K [kg/m3] | mass density, 298.15 K [kg/m3] | mass density, 303.15 K [kg/m3] | mass density, 308.15 K [kg/m3] | mass density, 313.15 K [kg/m3] | speed of sound, 293.15 K [m/s] | speed of sound, 298.15 K [m/s] | speed of sound, 303.15 K [m/s] | speed of sound, 308.15 K [m/s] | speed of sound, 313.15 K [m/s]
x1 = 0.0303 | 1018.7 ± 3 | 1013.6 ± 3 | 1008.2 ± 3 | 1003.2 ± 3 | 998 ± 3 | 1211.9 ± 6.1 | 1193.4 ± 6.1 | 1175 ± 6.1 | 1156.8 ± 6.1 | 1138.9 ± 6.1
x1 = 0.0701 | 1046.2 ± 3 | 1041.2 ± 3 | 1036.2 ± 3 | 1031.3 ± 3 | 1026.3 ± 3 | 1266.7 ± 6.1 | 1248.7 ± 6.1 | 1230.8 ± 6.1 | 1213.2 ± 6.1 | 1195.8 ± 6.1
x1 = 0.1006 | 1063.4 ± 3 | 1058.6 ± 3 | 1053.7 ± 3 | 1048.9 ± 3 | 1044 ± 3 | 1303.5 ± 6.1 | 1286 ± 6.1 | 1268.5 ± 6.1 | 1251.1 ± 6.1 | 1233.7 ± 6.1
x1 = 0.2 | 1105.7 ± 3 | 1101.9 ± 3 | 1096.5 ± 3 | 1091.8 ± 3 | 1087.2 ± 3 | 1400.3 ± 6.1 | 1383.3 ± 6.1 | 1366.1 ± 6.1 | 1349.2 ± 6.1 | 1332.5 ± 6.2
x1 = 0.3007 | 1133.9 ± 3 | 1129.4 ± 3 | 1124.9 ± 3 | 1120.4 ± 3 | 1115.9 ± 3 | 1465.8 ± 6.1 | 1449 ± 6.2 | 1432 ± 6.2 | 1415.3 ± 6.2 | 1398.7 ± 6.2
x1 = 0.4009 | 1153.6 ± 3.1 | 1149.2 ± 3.1 | 1144.8 ± 3.1 | 1140.3 ± 3.1 | 1135.9 ± 3 | 1505.7 ± 6.2 | 1488.9 ± 6.2 | 1472 ± 6.2 | 1455.4 ± 6.2 | 1439 ± 6.2
x1 = 0.501 | 1168.6 ± 3.1 | 1164.2 ± 3.1 | 1159.8 ± 3.1 | 1155.4 ± 3.1 | 1151 ± 3.1 | 1538.8 ± 6.2 | 1521.9 ± 6.2 | 1505 ± 6.2 | 1488.4 ± 6.2 | 1472 ± 6.2
x1 = 0.6002 | 1180.6 ± 3.1 | 1176.3 ± 3.1 | 1172 ± 3.1 | 1167.6 ± 3.1 | 1163.3 ± 3.1 | 1565.4 ± 6.2 | 1547.8 ± 6.2 | 1530.9 ± 6.2 | 1514.3 ± 6.2 | 1497.9 ± 6.2
x1 = 0.7002 | 1190.5 ± 3.1 | 1186.2 ± 3.1 | 1181.9 ± 3.1 | 1177.6 ± 3.1 | 1173.3 ± 3.1 | 1584.5 ± 6.2 | 1566.8 ± 6.2 | 1549.5 ± 6.2 | 1532.7 ± 6.2 | 1516.3 ± 6.2
x1 = 0.8005 | 1198.3 ± 3.1 | 1194.1 ± 3.1 | 1189.8 ± 3.1 | 1185.5 ± 3.1 | 1181.2 ± 3.1 | 1599.7 ± 6.3 | 1581.7 ± 6.3 | 1564.2 ± 6.3 | 1547.3 ± 6.3 | 1530.8 ± 6.3
x1 = 0.901 | 1204.6 ± 3.2 | 1200.4 ± 3.2 | 1196.1 ± 3.2 | 1191.8 ± 3.2 | 1187.5 ± 3.2 | 1615.4 ± 6.3 | 1596.4 ± 6.3 | 1578.6 ± 6.3 | 1561.5 ± 6.3 | 1544.9 ± 6.3
x1 = 1 | 1209.8 ± 3.2 | 1205.5 ± 3.2 | 1201.3 ± 3.2 | 1197.2 ± 3.2 | 1193 ± 3.2 | 1634.2 ± 6.3 | 1614.5 ± 6.3 | 1595.7 ± 6.3 | 1577.6 ± 6.3 | 1559.5 ± 6.3
